Values belong to the compound of their own block, whether it stands above or below them.
Legend:
[1] = tested on: UO-31; assay: Cytotoxicity against human UO-31 cells assessed as growth inhibition at 10 uM relative to control; format: functional; details: read-out: GI
[2] = tested on: CAKI-1; assay: Cytotoxicity against human CAKI-1 cells assessed as growth inhibition at 10 uM relative to control; format: functional; details: read-out: GI
[3] = tested on: SNB-75; assay: Cytotoxicity against human SNB-75 cells assessed as growth inhibition at 10 uM relative to control; format: functional; details: read-out: GI
[4] = tested on: HCT-116; assay: Cytotoxicity against human HCT-116 cells assessed as growth inhibition at 10 uM relative to control; format: functional; details: read-out: GI
[5] = tested on: BT-549; assay: Cytotoxicity against human BT-549 cells assessed as growth inhibition at 10 uM relative to control; format: functional; details: read-out: GI
[6] = tested on: 786-0; assay: Cytotoxicity against human 786-0 cells assessed as growth inhibition at 10 uM relative to control; format: functional; details: read-out: GI
[7] = tested on: M14; assay: Cytotoxicity against human M14 cells assessed as growth inhibition at 10 uM relative to control; format: functional; details: read-out: GI
[8] = tested on: M14; assay: cells; details: Homo sapiens, M14, 24 h
[9] = tested on: HCT-116; assay: cells; details: Homo sapiens, HCT-116, 24 h
[10] = tested on: MCF7; assay: Cytotoxicity against human MCF7 cells assessed as growth inhibition at 10 uM relative to control; format: functional; details: read-out: GI
[11] = tested on: LOX IMVI; assay: Cytotoxicity against human LOX IMVI cells assessed as growth inhibition at 10 uM relative to control; format: functional; details: read-out: GI
[12] = tested on: NCI-H522; assay: Cytotoxicity against human NCI-H522 cells assessed as growth inhibition at 10 uM relative to control; format: functional; details: read-out: GI
[13] = tested on: EKVX; assay: Cytotoxicity against human EKVX cells assessed as growth inhibition at 10 uM relative to control; format: functional; details: read-out: GI
[14] = tested on: A498; assay: Cytotoxicity against human A498 cells assessed as growth inhibition at 10 uM relative to control; format: functional; details: read-out: GI
[15] = tested on: HOP-92; assay: Cytotoxicity against human HOP-92 cells assessed as growth inhibition at 10 uM relative to control; format: functional; details: read-out: GI
[16] = tested on: Malme-3M; assay: Cytotoxicity against human Malme-3M cells assessed as growth inhibition at 10 uM relative to control; format: functional; details: read-out: GI
[17] = tested on: T47D; assay: Cytotoxicity against human T47D cells assessed as growth inhibition at 10 uM relative to control; format: functional; details: read-out: GI
[18] = tested on: Hs-578T; assay: Cytotoxicity against human Hs-578T cells assessed as growth inhibition at 10 uM relative to control; format: functional; details: read-out: GI
[19] = tested on: UACC-62; assay: Cytotoxicity against human UACC-62 cells assessed as growth inhibition at 10 uM relative to control; format: functional; details: read-out: GI
[20] = tested on: NCI-H226; assay: Cytotoxicity against human NCI-H226 cells assessed as growth inhibition at 10 uM relative to control; format: functional; details: read-out: GI
[21] = tested on: UACC-257; assay: Cytotoxicity against human UACC-257 cells assessed as growth inhibition at 10 uM relative to control; format: functional; details: read-out: GI
[22] = tested on: SNB-75; assay: cells; details: Homo sapiens, SNB-75, 24 h
[23] = tested on: ACHN; assay: Cytotoxicity against human ACHN cells assessed as growth inhibition at 10 uM relative to control; format: functional; details: read-out: GI
[24] = tested on: HOP-62; assay: Cytotoxicity against human HOP-62 cells assessed as growth inhibition at 10 uM relative to control; format: functional; details: read-out: GI
[25] = tested on: MDA-MB-231; assay: Cytotoxicity against human MDA-MB-231 cells assessed as growth inhibition at 10 uM relative to control; format: functional; details: read-out: GI
[26] = tested on: SR; assay: Cytotoxicity against human SR cells assessed as growth inhibition at 10 uM relative to control; format: functional; details: read-out: GI
[27] = tested on: MDA-MB-468; assay: Cytotoxicity against human MDA-MB-468 cells assessed as growth inhibition at 10 uM relative to control; format: functional; details: read-out: GI

SMILES: COc1cc2[nH]c(=S)n(-c3ccc(S(=O)(=O)Nc4ccc(Cl)nn4)cc3)c(=O)c2cc1OC
- inhibition of growth at 10 µM [1]: 16%
- inhibition of growth at 10 µM [2]: 10%
- inhibition of growth at 10 µM [3]: 10%
- inhibition of growth at 10 µM [4]: 11%

- IC50 [8]: 12.8 µM
- IC50 [9]: 28 µM
SMILES: Cc1ccc2[nH]c(=S)n(-c3ccc(S(=O)(=O)Nc4ccc(Cl)nn4)cc3)c(=O)c2c1
- inhibition of growth at 10 µM [5]: 17%
- inhibition of growth at 10 µM [1]: 15%
- inhibition of growth at 10 µM [2]: 10%
- inhibition of growth at 10 µM [6]: 39%
- inhibition of growth at 10 µM [7]: 100%
- inhibition of growth at 10 µM [4]: 60%

SMILES: O=c1c2cc3ccccc3cc2[nH]c(=S)n1-c1ccc(S(=O)(=O)Nc2ccc(Cl)nn2)cc1
- inhibition of growth at 10 µM [10]: 11%
- inhibition of growth at 10 µM [1]: 18%
- inhibition of growth at 10 µM [2]: 10%
- inhibition of growth at 10 µM [11]: 12%
- inhibition of growth at 10 µM [12]: 10%

SMILES: Cn1c(SCC(=O)Nc2ccc(S(=O)(=O)Nc3ccc(Cl)nn3)cc2)nc2ccccc2c1=O
- inhibition of growth at 10 µM [13]: 10%
- inhibition of growth at 10 µM [5]: 17%
- inhibition of growth at 10 µM [1]: 12%
- inhibition of growth at 10 µM [14]: 19%
- inhibition of growth at 10 µM [15]: 17%

SMILES: O=C(CSc1nc2ccccc2c(=O)n1C1CCCCC1)Nc1ccc(S(=O)(=O)Nc2ccc(Cl)nn2)cc1
- inhibition of growth at 10 µM [16]: 10%
- inhibition of growth at 10 µM [17]: 12%
- inhibition of growth at 10 µM [1]: 21%
- inhibition of growth at 10 µM [2]: 14%
- inhibition of growth at 10 µM [3]: 16%
- inhibition of growth at 10 µM [15]: 25%

SMILES: NS(=O)(=O)c1ccc(NC(=O)CSc2nc3ccccc3c(=O)n2-c2ccc(S(=O)(=O)Nc3ccc(Cl)nn3)cc2)cc1
- inhibition of growth at 10 µM [18]: 13%
- inhibition of growth at 10 µM [19]: 14%
- inhibition of growth at 10 µM [1]: 10%
- inhibition of growth at 10 µM [2]: 12%
- inhibition of growth at 10 µM [3]: 27%

- IC50 [22]: 47.5 µM
SMILES: O=C(CSc1nc2ccccc2c(=O)n1-c1ccccc1)Nc1ccc(S(=O)(=O)Nc2ccc(Cl)nn2)cc1
- inhibition of growth at 10 µM [20]: 10%
- inhibition of growth at 10 µM [1]: 21%
- inhibition of growth at 10 µM [21]: 12%
- inhibition of growth at 10 µM [3]: 27%
- inhibition of growth at 10 µM [15]: 11%

- IC50 [8]: 40.9 µM
- IC50 [9]: 20 µM
SMILES: O=c1c2cc(Cl)cc(Cl)c2[nH]c(=S)n1-c1ccc(S(=O)(=O)Nc2ccc(Cl)nn2)cc1
- inhibition of growth at 10 µM [1]: 19%
- inhibition of growth at 10 µM [2]: 11%
- inhibition of growth at 10 µM [14]: 12%
- inhibition of growth at 10 µM [6]: 21%
- inhibition of growth at 10 µM [7]: 78%
- inhibition of growth at 10 µM [4]: 48%
- inhibition of growth at 10 µM [12]: 10%

SMILES: CNC(=O)CSc1nc2ccccc2c(=O)n1-c1ccc(S(=O)(=O)Nc2ccc(Cl)nn2)cc1
- inhibition of growth at 10 µM [11]: 24%

SMILES: O=C(CSc1nc2ccccc2c(=O)n1Cc1ccccc1)Nc1ccc(S(=O)(=O)Nc2ccc(Cl)nn2)cc1
- inhibition of growth at 10 µM [23]: 10%
- inhibition of growth at 10 µM [20]: 12%
- inhibition of growth at 10 µM [24]: 11%
- inhibition of growth at 10 µM [25]: 13%
- inhibition of growth at 10 µM [26]: 10%
- inhibition of growth at 10 µM [10]: 13%
- inhibition of growth at 10 µM [1]: 21%
- inhibition of growth at 10 µM [2]: 13%

SMILES: O=C(CSc1nc2ccccc2c(=O)n1-c1ccc(S(=O)(=O)Nc2ccc(Cl)nn2)cc1)NC1CCCCC1
- inhibition of growth at 10 µM [27]: 10%
- inhibition of growth at 10 µM [18]: 10%
- inhibition of growth at 10 µM [19]: 10%
- inhibition of growth at 10 µM [14]: 11%
- inhibition of growth at 10 µM [3]: 16%
- inhibition of growth at 10 µM [12]: 11%
- inhibition of growth at 10 µM [15]: 11%
